From ChEMBL document CHEMBL1201862, “PubChem BioAssay data set” (2004)
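These data come from cells grown in 96-well plates and exposed to compound for 48 hours at five concentrations. GI50 marks 50% less growth.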 Activity calls are given as the source filed them. No stated cut-off is given here; in the data, active = GI50 up to about 1.1 µM and inactive = higher.

Experiments:
Experiment in all cases: NCI anticancer screen, dose series, 48 h
Malme-3M = system: Malme-3M
RXF 393 = system: RXF 393
T47D = system: T47D
NCI-H460 = system: NCI-H460
A549 = system: A549
SF-539 = system: SF-539
A498 = system: A498
LOX IMVI = system: LOX IMVI
UACC-257 = system: UACC-257
SNB-75 = system: SNB-75
OVCAR-5 = system: OVCAR-5
SR = system: SR
DU-145 = system: DU-145
MOLT-4 = system: MOLT-4
ACHN = system: ACHN
BT-549 = system: BT-549
HT-29 = system: HT-29
HCC 2998 = system: HCC 2998
SN12C = system: SN12C
HL-60 = system: HL-60

Compound | GI50 (Malme-3M) | GI50 (RXF 393) | GI50 (T47D) | GI50 (NCI-H460) | GI50 (A549) | GI50 (SF-539) | GI50 (A498) | GI50 (LOX IMVI) | GI50 (UACC-257) | GI50 (SNB-75) | GI50 (OVCAR-5) | GI50 (SR) | GI50 (DU-145) | GI50 (MOLT-4) | GI50 (ACHN) | GI50 (BT-549) | GI50 (HT-29) | GI50 (HCC 2998) | GI50 (SN12C) | GI50 (HL-60)
N#C/C(=C\c1ccc([N+](=O)[O-])o1)c1n[nH]c(Cc2ccccc2)n1 | 1.94 µM (inactive) | 0.423 µM (active) | 2 µM (inactive) | 3.3 µM (inactive) | 2.56 µM (inactive) | 1.32 µM (inactive) | 6.32 µM (inactive) | 1.07 µM (active) | 1.91 µM (inactive) | 2.52 µM (inactive) | 1.64 µM (inactive) | 0.173 µM (active) | 1.57 µM (inactive) | 0.406 µM (active) | 1.78 µM (inactive) | 2.53 µM (inactive) | 1.05 µM (active) | 1.63 µM (inactive) | 1.49 µM (inactive) | 3.06 µM (inactive)
C=C1C(=O)OC2C1C(OC(=O)/C(C)=C/C)CC(O)(CCl)C1C(O)C3OC3(C)C21O (stereo not given) | 0.735 µM (active) | 9.77 µM (inactive) | 23.8 µM (inactive) | > 50 µM (inactive) | > 50 µM (inactive) | > 50 µM (inactive) | > 50 µM (inactive) | 18.9 µM (inactive) | > 50 µM (inactive) | > 50 µM (inactive) | > 50 µM (inactive) | 17 µM (inactive) | > 50 µM (inactive) | 13.6 µM (inactive) | 19.9 µM (inactive) | 17.4 µM (inactive) | 36.9 µM (inactive) | > 50 µM (inactive) | > 50 µM (inactive) | 8.79 µM (inactive)
Cc1cc(=O)[nH]c2c1C(=O)c1c(C)cc(=O)n(C)c1C2=O | 0.00177 µM (active) | 0.138 µM (active) | 0.303 µM (active) | 0.187 µM (active) | 0.188 µM (active) | 0.0208 µM (active) | 0.214 µM (active) | 0.122 µM (active) | 0.0152 µM (active) | 0.0176 µM (active) | 0.166 µM (active) | 0.125 µM (active) | 0.0238 µM (active) | 0.212 µM (active) | 0.0995 µM (active) | 0.0228 µM (active) | 0.043 µM (active) | 0.0261 µM (active) | 0.074 µM (active) | 0.153 µM (active)
Clc1ccc2c(NCCCCN3OC3c3ccccc3)ccnc2c1 (stereo not given) | 8.41 µM (inactive) | 5.55 µM (inactive) | 5.53 µM (inactive) | 6.5 µM (inactive) | 5.62 µM (inactive) | 1.98 µM (inactive) | 8.36 µM (inactive) | 2.13 µM (inactive) | 18.1 µM (inactive) | 5.82 µM (inactive) | 14.4 µM (inactive) | 1.69 µM (inactive) | 10.4 µM (inactive) | 2.15 µM (inactive) | 9.44 µM (inactive) | 13.4 µM (inactive) | 3.16 µM (inactive) | 2.89 µM (inactive) | 11.1 µM (inactive) | < 0.01 µM (active)
OC1(c2ccccc2)CSC2=Nc3ccccc3C3CCN1N23 (stereo not given) | 22.4 µM (inactive) | 20.9 µM (inactive) | 16.6 µM (inactive) | 13.4 µM (inactive) | 26.8 µM (inactive) | 16.9 µM (inactive) | 14.6 µM (inactive) | 19 µM (inactive) | 23.4 µM (inactive) | 3.75 µM (inactive) | 11.1 µM (inactive) | 20 µM (inactive) | 15.6 µM (inactive) | 30.5 µM (inactive) | 19 µM (inactive) | 23.1 µM (inactive) | 18.1 µM (inactive) | 26.9 µM (inactive) | 23.5 µM (inactive) | 30.1 µM (inactive)
